Type in all cases: cell-based
The test system of assay [1] is Target C CJ mRNA. Put plainly: Gene panel canonical junction qPCR assay, Target C. Particulars: Table 6, decrease in CJ mRNA, read-out: Target C IC50 (decrease in CJ mRNA levels). The protocol: (§1) Compounds described herein were used to modulate RNA transcript abundance in cells. The expression of a target mRNA was measured by detecting the formation of an exon-exon junction in the canonical transcript (CJ). A compound mediated exon-inclusion event was detected by observing an increase in formation of a new junction with an alternative exon (AJ). Real-time qPCR assays were used to detect these splicing switches and interrogate the potency of various compounds towards different target genes. A high-throughput real time quantitative PCR (RT-qPCR) assay was developed to measure these two isoforms of the mRNA (CJ and AJ) for an exemplary gene, HTT, together with a control housekeeping gene, GAPDH or GUSB or PPIA, used for normalization. Briefly, the A673 or K562 cell line was treated with various compounds described herein (e.g., compounds of Formula (I)). After treatment, the levels of the HTT mRNA targets were determined from each sample of cell lysate by cDNA synthesis followed by qPCR.
(§2) The A673 cell line was cultured in DMEM with 10% FBS. Cells were diluted with full growth media and plated in a 96-well plate (15,000 cells in 100ul media per well). The plate was incubated at 37° C. with 5% CO2 for 24 hours to allow cells to adhere. An 11-point 3-fold serial dilution of the compounds was made in DMSO then diluted in media in an intermediate plate. Compounds were transferred from the intermediate plate to the cell plate with the top dose at a final concentration of 10 uM in the well. Final DMSO concentration was kept at or below 0.25%. The cell plate was returned to the incubator at 37° C. with 5% CO2 for an additional 24 hours.
(§3) The K562 cell line was cultured in IMDM with 10% FBS. For K562, cells were diluted with full growth media and plated in either a 96-well plate (50,000 cells in 50 uL media per well) or a 384-well plate (8,000-40,000 cells in 45 uL media per well). An 11-point 3-fold serial dilution of the compounds were made in DMSO then diluted in media in an intermediate plate. Compound was transferred from the intermediate plate to the cell plate with the top dose at a final concentration of 10 uM in the well. Final DMSO concentration was kept at or below 0.25%. Final volume was 100 uL for 96-well plate and 50 uL for 384-well plate. The cell plate was then placed in an incubator at 37° C. with 5% CO2 for 24 hours.
(§4) The data analysis was performed by first determining the ΔCt vs the housekeeper gene. This ΔCt was then normalized against the DMSO control (ΔΔCt) and converted to RQ (relative quantification) using the 2^(−ΔΔCt) equation. The RQ were then converted to a percentage response by arbitrarily setting an assay window of 3.5 ΔCt for HTT-CJ and an assay window of 9 ΔCt for HTT-AJ. […] The percentage response was then fitted to the 4 parametric logistic equation to evaluate the concentration dependence of compound treatment. The increase in AJ mRNA is reported as AC50 (compound concentration having 50% response in AJ increase) while the decrease in CJ mRNA levels is reported as IC50 (compound concentration having 50% response in CJ decrease).
(§5) Additional studies were carried out for a larger panel of genes using the protocol provided above. The junction between flanking upstream and downstream exons was used to design canonical junction qPCR assays. At least one of the forward primer, reverse primer or the CY5-labeled 5′ nuclease probe (with 3′ quencher such as ZEN/Iowa Black FQ) was designed to overlap with the exon junction to capture the CJ mRNA transcript. BLAST was used to confirm the specificity of the probeset and parameters such as melting temperature, GC content, amplicon size, and primer dimer formation are considered during their design. Data for the decrease in CJ mRNA levels for three exemplary genes (HTT, SMN2, and Target C) analyzed in this panel are reported as IC50 (compound concentration having […] in CJ decrease).

Assay [2] concerns SMN2 CJ mRNA. Put plainly: Gene panel canonical junction qPCR assay, SMN2. The following applies: Table 6, decrease in CJ mRNA, read-out: SMN2 IC50 (decrease in CJ mRNA levels). How it is done:
as §1, §2, §3, §4, §5

The test system of assay [3] is HTT CJ mRNA. Kind of assay: Gene panel canonical junction qPCR assay, HTT. Particulars: Table 6, decrease in CJ mRNA, read-out: HTT IC50 (decrease in CJ mRNA levels). The protocol:
as §1, §2, §3, §4, §5
For orientation: In qPCR the cycle at which signal appears reflects the starting amount.

Assay [4] deals with HTT mRNA. Kind of assay: Splicing assay (RT-qPCR) monitoring HTT splice variants, canonical (CJ) and alternative (AJ) junction. The following applies: 50% response, A673 or K562 cell line, 24 hours; for IC50: decrease in CJ mRNA; for AC50: increase in AJ mRNA. The protocol: as §1
• Cells-to-CT 1-step kit: ThermoFisher A25602, Cells-to-CT lysis reagent: ThermoFisher 4391851C, TaqMan™ Fast Virus 1-Step Master Mix: ThermoFisher 4444436 • GAPDH: VIC-PL, ThermoFisher 4326317E (Assay: Hs99999905_ml)—used for K562/suspension cell lines • GUSB: VIC-PL, ThermoFisher 4326320E (Assay: Hs99999908_ml)—used for K562/suspension cell lines • PPIA: VIC-PL, ThermoFisher 4326316E (Assay: Hs99999904_ml)—used for A673/adherent cell lines
as §2, §3
The cells were then gently washed with 50 uL-100 uL cold PBS before proceeding to addition of lysis buffer. 30 uL-50 uL of room temperature lysis buffer with DNAse I (and optionally RNAsin) was added to each well. Cells were shaken/mixed thoroughly at room temperature for 5-10 minutes for lysis to take place and then 3 uL-5 uL of room temperature stop solution was added and wells were shaken/mixed again. After 2-5 minutes, the cell lysate plate was transferred to ice for RT-qPCR reaction setup. The lysates could also be frozen at −80° C. for later use.
In some cases, a direct lysis buffer was used. An appropriate volume of 3X lysis buffer (10 mM Tris, 150 mM NaCl, 1.5%-2.5% Igepal and 0.1-1 U/uL RNAsin, pH 7.4) was directly added to either K562 or A673 cells in media and mixed by pipetting 3 times. The plates were then incubated at room temperature with shaking/rocking for 20-50 minutes to allow for lysis to take place. After this time, the cell lysate plate was transferred to ice to set up for the RT-qPCR reactions. The lysates could also be frozen at −80° C. for later use. […]

Counter-ions that a name gives are not always drawn. Some results are limits rather than exact numbers.

For orientation: IC50 means the concentration at which inhibition is half-maximal. A word on the AC50: it is the concentration at which the activity in the assay is half-maximal. High values mean activity only at high concentration, low ones activity at low concentration. As for `Cc1nc2c(F)cc(-c3nc4sc(C5CCNCC5)cc4s3)cc2s1` [Compound 126, 4-fluoro-2-methyl-6-[5-(piperidin-4-yl)thieno[2,3-d][1,3]thiazol-2-yl]-1,3-benzothiazole hydrochloride], the IC50 in assay [1] lay within 1 to 10 µM; in assay [2] it was 0.1 to 1 µM; in assay [3], 0.1 to 1 µM; in assay [4] it was 0.1 to 1 µM. The molecule also came in with an AC50 in assay [4] of 0.1 to 1 µM.

For `Cn1cc2cc(-n3cc4sc(C5CCNCC5)cc4n3)cc(F)c2n1` [Compound 105, 7-fluoro-2-methyl-5-[5-(piperidin-4-yl)thieno[3,2-c]pyrazol-2-yl]indazole], the IC50 was 1 to 10 µM in assay [1], 0.1 to 1 µM in assay [2], 0.1 to 1 µM in assay [3] and 0.1 to 1 µM in assay [4]. This molecule came in with an AC50 in assay [4] of 0.1 to 1 µM.

For the molecule `COc1c(-c2cc3cn(C4CCNCC4)nc3s2)nn2cc(C)nc(C)c12` [Compound 219, 4-(5-{3-methoxy-4,6-dimethylpyrazolo[1,5-a]pyrazin-2-yl}thieno[2,3-c]pyrazol-2-yl) piperidine], the IC50 in assay [1] was more than 10 µM; in assay [2] it was 1 to 10 µM; in assay [3], more than 10 µM; in assay [4], more than 10 µM. In addition, in assay [4], the AC50 was more than 10 µM.

Turning to `Cn1cc2cc(-c3nc4sc(C5(O)CCNCC5)cc4s3)cc(F)c2n1` [Compound 236, 4-[2-(7-fluoro-2-methylindazol-5-yl)thieno[2,3-d] [1,3]thiazol-5-yl] piperidin-4-ol], the IC50 in assay [1] lay within 1 to 10 µM; in assay [2], 0.1 to 1 µM; in assay [3], 0.1 to 1 µM; in assay [4], 0.1 to 1 µM. In assay [4], the AC50 lay within 1 to 10 µM.

Take `Cn1cc2cc(-c3nc4sc(C5CCNCC5)cc4s3)c(O)c(F)c2n1` [Compound 206, 7-fluoro-2-methyl-5-[5-(piperidin-4-yl)thieno[2,3-d][1,3]thiazol-2-yl]indazol-6-ol]: the IC50 was 0.1 to 1 µM in assay [1], less than 0.1 µM in assay [2], less than 0.1 µM in assay [3] and less than 0.1 µM in assay [4]. The molecule also showed a half-maximal activity concentration (AC50) in assay [4] of less than 0.1 µM.

Turning to `Cn1cc2cc(-c3cc4cn(C5CCNCC5)nc4s3)c(F)cc2n1` [Compound 210], the IC50 was 0.1 to 1 µM in assay [1], less than 0.1 µM in assay [2], less than 0.1 µM in assay [3] and less than 0.1 µM in assay [4]. Moreover, the AC50 in assay [4] is less than 0.1 µM.

Turning to `C[C@@H]1C[C@H](c2cc3sc(-c4cc(F)c5nn(C)cc5c4)nc3s2)CCN1` [Compound 192, 7-fluoro-2-methyl-5-[5-(2-methylpiperidin-4-yl)thieno[2,3-d][1,3]thiazol-2-yl]indazole], the IC50 in assay [1], in assay [2], in assay [3] and in assay [4] was less than 0.1 µM each time. The molecule further gave a concentration at half-maximal activity (AC50) in assay [4] of less than 0.1 µM.

In the case of `Cc1cn2cc(-n3cc4sc(C5CCNCC5)cc4n3)nc2c(C)n1` [Compound 181], the IC50 is more than 10 µM in assay [1], 1 to 10 µM in assay [2], 1 to 10 µM in assay [3] and 1 to 10 µM in assay [4]. Further, the AC50 in assay [4] is 1 to 10 µM.

`Cc1cn2nc(-c3nc4sc(C5=CCOCC5)cc4s3)cc(C)c2n1` [Compound 195, 6-[5-(3,6-dihydro-2H-pyran-4-yl)thieno[2,3-d][1,3]thiazol-2-yl]-2,8-dimethylimidazo[1,2-b]pyridazine]: the half-inhibitory concentration (IC50) in assay [1], in assay [2], in assay [3] and in assay [4] was 0.1 to 1 µM each time. Further, the concentration at half-maximal activity (AC50) in assay [4] is 0.1 to 1 µM.

For `Cc1cn2nc(-n3cc4sc(C5CCNCC5)cc4n3)cc2c(C)n1` [Compound 171], the 50% inhibitory concentration (IC50) in assay [1] lay within 1 to 10 µM; in assay [2], 0.1 to 1 µM; in assay [3], 0.1 to 1 µM; in assay [4], 0.1 to 1 µM. Besides, the AC50 in assay [4] was in the range of 0.1 to 1 µM.

Turning to `Cc1cn2nc(-n3cc4sc(N5CC6(CN(C)C6)C5)cc4n3)cc(C)c2n1` [Compound 188, 2-(2-{2,8-dimethylimidazo[1,2-b]pyridazin-6-yl}thieno [3,2-c]pyrazol-5-yl)-6-methyl-2,6-diazaspiro [3.3] heptane], the IC50 in assay [1] was 1 to 10 µM; in assay [2] it was 0.1 to 1 µM; in assay [3], 0.1 to 1 µM; in assay [4], 0.1 to 1 µM. For the same molecule, in assay [4], the AC50 lay in the range of 1 to 10 µM.

Take `Cc1cn2nc(-c3cc4cn(C5CCNCC5)nc4s3)c(O)c2c(C)n1` [Compound 213, 4,6-dimethyl-2-[2-(piperidin-4-yl)thieno[2,3-c]pyrazol-5-yl]pyrazolo[1,5-a]pyrazin-3-ol hydrochloride]: the IC50 in assay [1] is more than 10 µM; in assay [2], 1 to 10 µM; in assay [3], 1 to 10 µM; in assay [4], 1 to 10 µM. The molecule further came in with an AC50 in assay [4] of 1 to 10 µM.

On to `Cc1cn2cc(-c3cc4cn(C5CCNCC5)nc4s3)cc(C)c2n1` [Compound 216], for which the IC50 was 0.1 to 1 µM in assay [1], less than 0.1 µM in assay [2], less than 0.1 µM in assay [3] and less than 0.1 µM in assay [4]. In addition, the AC50 in assay [4] was less than 0.1 µM.

`Cn1cc2cc(-c3nc4sc(N5CCC56CCCNC6)cc4s3)cc(F)c2n1` (centres unmarked) [Compound 202, 1-[2-(7-fluoro-2-methylindazol-5-yl)thieno[2,3-d][1,3]thiazol-5-yl]-1,6-diazaspiro[3.5]nonane]: the half-inhibitory concentration (IC50) in assay [1] is 1 to 10 µM; in assay [2] it was 1 to 10 µM; in assay [3], more than 10 µM; in assay [4] it was more than 10 µM. Moreover, the AC50 in assay [4] is more than 10 µM.

Consider `Cc1cc(-c2cc3cn(C4CCNCC4)nc3s2)cc2cn(C)nc12` [Compound 225], for which the IC50 was 0.1 to 1 µM in assay [1], less than 0.1 µM in assay [2], less than 0.1 µM in assay [3] and less than 0.1 µM in assay [4]. Further, the AC50 in assay [4] was less than 0.1 µM.

Consider `Cc1cn2nc(-c3nc4sc(C5CNC5)cc4s3)cc(C)c2n1` [Compound 235, 3-(2-{2,8-dimethylimidazo[1,2-b]pyridazin-6-yl}thieno[2,3-d] [1,3]thiazol-5-yl) azetidine], for which the half-inhibitory concentration (IC50) in assay [1] is 1 to 10 µM; in assay [2], 0.1 to 1 µM; in assay [3], 1 to 10 µM; in assay [4], 1 to 10 µM. In assay [4], this molecule registered an AC50 of 1 to 10 µM.

(Values after US20240239811A1, “5-(5-(PIPERIDIN-4-YL)THIENO[3,2-C]PYRAZOL-2-YL]INDAZOLE DERIVATIVES AND RELATED COMPOUNDS AS MODULATORS FOR SPLICING NUCLEIC ACIDS AND FOR THE T” (REMIX THERAPEUTICS INC., priority 2020, published 2024).)
